In US11993785B2, “Immersion deposition methods and compositions for use in the same” (Wake Forest University Health Sciences, priority 2018, dated 2024):

Test system: primary sarcoma organoids
Experiment: CELLTITER-GLO 3D ATP assay of drug treated primary sarcoma organoids
Type: cell-based
Conditions: 3 days, after 7 days organoid culture
Experimental: The organoids were made using an immersion printing technique using a gelatin composition having a gelatin concentration of 10 mg/mL. To prepare the gelatin composition, gelatin was allowed to completely dissolve, and then the composition was cooled at 4° C. prior to use. The organoids were printed with a new bioprinter, BIO X™ available from CELLINK®, using a new type of printhead, a syringe pump printhead.
The resulting organoids were cultured for 7 days, and then subjected to various drug conditions in culture for 3 more days. Table 1 details the drug and concentration added to the standard culture media (high glucose DMEM supplemented with 10% fetal bovine serum, 1% L-glutamine, 1% penicillin/streptomycin). The organoids were then measured for viability using the CELLTITER-GLO® 3D ATP assay to measure ATP content via luminescence. The resulting signals, shown in FIG. 5, show a trend of organoid viability decreasing as drug concentration increased. Live/dead imaging corroborates the findings of the ATP assay.

COc1cccc2c1C(=O)c1c(O)c3c(c(O)c1C2=O)C[C@@](O)(C(=O)CO)C[C@@H]3O[C@H]1C[C@H](N)[C@H](O)[C@H](C)O1 [Doxorubicin]
AVG Signal (lum), ATP assay (1 nM drug in culture media): 5.13E+06 lum
AVG Signal (lum), ATP assay (100 nM drug in culture media): 2.62E+06 lum
AVG Signal (lum), ATP assay (10 μM drug in culture media): 1.12E+06 lum

Cc1ccc(NC(=O)c2ccc(CN3CCN(C)CC3)cc2)cc1Nc1nccc(-c2cccnc2)n1 [Imatinib]
AVG Signal (lum), ATP assay (5 μM drug in culture media): 9.16E+06 lum
AVG Signal (lum), ATP assay (50 μM drug in culture media): 6.56E+06 lum
AVG Signal (lum), ATP assay (500 μM drug in culture media): 1.88E+04 lum
